{
  "source": "patent US10968214B2",
  "about": "“KRas G12C inhibitors” (Eli Lilly and Company, priority 2018, dated 2021)",
  "key": {"EL3187 (PDX)": {"tested_on": "EL3187 (PDX)", "assay": "Anti-tumor growth activity, EL3187 lung PDX", "type": "in vivo", "settings": "for Tumor Growth Inhibition (%) or Regression (−%): EL3187 (PDX) Lung, 28 Day, negative = regression"}, "A427": {"tested_on": "A427", "assay": "CellTiterGlo Cell Proliferation Assay, A427", "type": "cell-based", "settings": "Homo sapiens, A-427, KRas G12D, lung, 96 hr", "procedure": "(§1) A panel of tumor cell lines harboring KRas G12C or other KRas mutations are collected (Table 6). All cell lines are from ATCC or other sources indicated.\n(§2) Typically cells are cultured in RPMI1640 or Dulbecco's modified Eagle's medium (DMEM, GIBCO) supplemented with 10% FBS (GIBCO, Invitrogen). For 2D culture cells (4×10^3/well) maintained in growth medium described above, are plated onto 96 well tissue culture plates Corning® Cat. 3603) a day before the treatment. For 3D culture 8000 cells/well are seeded onto 96 well ultra-low attachment tissue culture plates (Corning, #3474). The cells are treated compound for 96 hr, and then are analyzed for viability using the CellTiterGlo® Luminescent Cell Viability Assay® (Promega #G7572 for 2D and Promega #G9683 for 3D cultures) according to manufacturer's instructions and an EnVision™ plate reader. Nonlinear regression and sigmoidal dose-response curves are used to calculate the half maximal inhibitory concentration (IC50) with GraphPad Prism 4® software."}, "Kyse-410": {"tested_on": "Kyse-410", "assay": "CellTiterGlo Cell Proliferation Assay, Kyse-410", "type": "cell-based", "settings": "Homo sapiens, KRas G12C, Esophagus, 96 hr", "procedure": "as §1, §2"}, "CT-26-H4/KRas G12C": {"tested_on": "CT-26-H4/KRas G12C", "assay": "CT-26-H4/KRas G12C mouse syngeneic model, immuno-therapy combination", "type": "in vivo", "settings": "Example 1 30 mg/kg BID × 21 PO, PD-L1 antibody 500 ug/mouse Q7D × 3 IP, PD-1 antibody 250 ug/mouse BIW × 3 IP", "text": "A mouse syngeneic model is used to evaluate the effects of KRas G12C inhibition and immuno-therapy combination. In this model, the KRas G12D mutation is converted to KRas G12C mutation by CRISPR knock-in in the CT-26 cell line, a mouse colorectal tumor cell line. The KRas G12C knock-in is confirmed by genetic and functional characterization. The engineered cell line is named CT-26-H4/KRas G12C. These cells are implanted to the Balb/c mice, and the compound treatment is started 6 days post tumor cell implantation. PD-1 and PD-L1 inhibitors are known in the art and include durvalumab, pembrolizumab, and nivolumab. […] After 3 weeks, compound treatment is stopped and all tumors in monotherapy groups with the exception of 1 animal in the anti-PD-1 group started to regrow. However, the tumors in the two combination groups have no signs of regrowth."}, "LU-99": {"tested_on": "LU-99", "assay": "CellTiterGlo Cell Proliferation Assay, LU-99", "type": "cell-based", "settings": "Homo sapiens, KRas G12C, Lung, 96 hr", "procedure": "as §1, §2"}, "[1]": {"settings": "read-out: IC50 (μM) in 2 D cell proliferation"}, "[2]": {"settings": "read-out: IC50 (μM) in 3 D spheroid cell proliferation"}},
  "note": "Several values for one entry are separate records, joined by “and”; a condition that tells them apart may be missing. Identical values can stand only once. Like-named read-outs stand apart in the source and are kept apart here.",
  "data": [
    {"smiles": "C=CC(=O)N1CCN(c2ncnc3c(F)c(-c4ccc(F)c5sc(N)nc45)c(Cl)cc23)CC1", "note": "[Example 1, 1-{4-[7-(2-Amino-7-fluoro-1,3-benzothiazol-4-yl)-6-chloro-8-fluoroquinazolin-4-yl]piperazin-1-yl}prop-2-en-1-one]", "values": [
      {"measurement": "Tumor Growth Inhibition (%) or Regression (−%)", "setting": "EL3187 (PDX); 5 mg/kg BID", "result": "−65", "unit": "%"},
      {"measurement": "Tumor Growth Inhibition (%) or Regression (−%)", "setting": "EL3187 (PDX); 5 mg/kg QD", "result": 94, "unit": "%"},
      {"measurement": "Tumor Growth Inhibition (%) or Regression (−%)", "setting": "EL3187 (PDX); 15 mg/kg BID", "result": "−80", "unit": "%"},
      {"measurement": "Tumor Growth Inhibition (%) or Regression (−%)", "setting": "EL3187 (PDX); 15 mg/kg QD", "result": "−75", "unit": "%"},
      {"measurement": "Tumor Growth Inhibition (%) or Regression (−%)", "setting": "EL3187 (PDX); 30 mg/kg BID, 30 mg/kg", "result": "−100% and −92.5%"},
      {"measurement": "Tumor Growth Inhibition (%) or Regression (−%)", "setting": "EL3187 (PDX); 100 mg/kg BID", "result": "−100", "unit": "%"},
      {"measurement": "Tumor Growth Inhibition (%) or Regression (−%)", "setting": "EL3187 (PDX); 100 mg/kg QD", "result": "−100", "unit": "%"},
      {"measurement": "In Vivo Anti-Tumor Activities", "setting": "EL3187 (PDX); EL3187 Lung PDX, Example 1 5 mg/kg QDx28", "result": 94.8},
      {"measurement": "IC50", "setting": "A427; [1]", "result": 10.1, "unit": "µM"},
      {"measurement": "IC50", "setting": "A427; [2]", "result": 18.6, "unit": "µM"},
      {"measurement": "IC50", "setting": "Kyse-410; [1]", "result": 2.94, "unit": "µM"},
      {"measurement": "IC50", "setting": "Kyse-410; [2]", "result": 0.471, "unit": "µM"},
      {"measurement": "Complete Response (% CR)", "setting": "CT-26-H4/KRas G12C; 40 days post treatment", "result": 0, "unit": "%"},
      {"measurement": "Complete Response (CR)/group mice", "setting": "CT-26-H4/KRas G12C; 40 days post treatment", "result": "0/10"},
      {"measurement": "% Tumor Growth Inhibition", "setting": "CT-26-H4/KRas G12C; End of treatment at day 28", "result": 96, "unit": "%"},
      {"measurement": "Complete Response (% CR)", "setting": "CT-26-H4/KRas G12C; End of treatment at day 28", "result": 10, "unit": "%"},
      {"measurement": "Complete Response (CR)/group mice", "setting": "CT-26-H4/KRas G12C; End of treatment at day 28", "result": "1/10"},
      {"measurement": "IC50", "setting": "LU-99; [1]", "result": 1.57, "unit": "µM"},
      {"measurement": "IC50", "setting": "LU-99; [2]", "result": 0.659, "unit": "µM"}
    ]}
  ]
}
